Values quoted from earlier work as cited in publication PMC2831206 (Journal of medicinal chemistry, 2010).

Experiments:
PDE9A = conditions: read-out: IC50 with PDE9A
learning and memory = conditions: rodents

Row | SMILES | IC50 (PDE9A) | effect on learning and memory (learning and memory)
1 | CC(C)Cn1c(=O)n(C)c(=O)c2nc[nH]c21 [IBMX, 3-isobutyl-1-methylxanthine] | > 200 µM | 
2 | C[C@H](Cc1nc2c(cnn2-c2ccccc2Cl)c(=O)[nH]1)C(F)(F)F [compound 1, 1-(2-chlorophenyl)-6-(3,3,3-trifluoro-2-methylpropyl)-1H-pyrazolo[3,4-d]pyrimidine-4(5H)-one] |  | ability to improve learning and memory in rodents
